# Earlier results in patent US8067464B2, “Compositions and methods using apocynin compounds and nitric oxide donors” (Nitromed, Inc., priority 2004, dated 2011).
structure (smiles),measurement,setting,value
"O=[N+]([O-])O[C@H]1CO[C@H]2[C@@H]1OC[C@H]2O[N+](=O)[O-] [isosorbide dinitrate, 1,4,3,6-dianhydro-D-glucitol-2,5-dinitrate]",solubility in organic solvents,"organic solvents such as ethanol, ether and chloroform",freely soluble
same,solubility in water,water,sparingly soluble
